This note sets out measurements from US10039749B1, “Substituted pyrazole derivatives” (KING SAUD UNIVERSITY, priority 2018, dated 2018).

For series [1], the system named is Renal subpanel tumor cell lines. Description: In vitro anticancer screening, five concentration levels, renal subpanel. It is filed as cell-based, human. The protocol: (§1) Anticancer evaluation of the newly synthesized compound was performed by a screening in vitro with 60 human cell lines for primary anticancer screening, representing leukemia, melanoma and cancers of the lung, colon, brain, ovary, breast, prostate and kidney. The screening was a two-stage process, beginning with the evaluation of all compounds against the 60 cell lines at a single-dose of 10 μM. […] Therefore this compound passed on to further evaluation at five concentration levels ranging from 0.01 μM to 100 μM.

Series [2] has as its system Prostate subpanel tumor cell lines. Description: In vitro anticancer screening, five concentration levels, prostate subpanel. The series is classed as cell-based, human. How it is done:
as §1

In a further series the test system is Sprague-Dawley rats. Nature of the series: In vivo acute toxicity (LD50). Further details: species or system rat. The protocol:
(§2) Adult male Sprague-Dawley rats (180±20 g, body weight), were purchased from the animal house of the National Research Centre, Egypt. They were maintained for 1 week under environmentally controlled conditions (constant temperature, 25-27° C., with 12-hour light/dark cycles) for 1 week prior to starting the experiments. The […] were housed with 10 animals per cage, and were provided with tap water and commercial diets.
Acute toxicity of the target compound was determined in vivo according to previously reported methods in the literature. Briefly, animals were divided into groups of 10 rats each, and administered single intravenous (IV) doses, graded ranging from 0 to 1200 μg/kg, of the synthesized compound. Control animals received vehicle alone (dimethyl sulfoxide, DMSO).
The mortality of the animals was monitored for up to 1 month posttreatment. […] Acute toxicity was considered by the in vivo assay.

The subject of series [3] is Melanoma subpanel tumor cell lines. Description: In vitro anticancer screening, five concentration levels, melanoma subpanel. The series is classed as cell-based, human. The protocol: as §1
Series [4] relates to CNS subpanel tumor cell lines. Nature of the series: In vitro anticancer screening, five concentration levels, CNS subpanel. The series is classed as cell-based, human. The protocol: as §1
The next series has as its system 60 human cell lines. Nature of the series: In vitro anticancer screening, full panel. The series is classed as cell-based. The note with it: for GI50: Homo sapiens, read-out: GI50 MG-MID (full panel mean-graph midpoint). How it is done: as §1
Series [5] deals with Colon subpanel tumor cell lines. Description: In vitro anticancer screening, five concentration levels, colon subpanel. It is filed as cell-based, human. The protocol: as §1
In series [6] the test system is Breast subpanel tumor cell lines. Nature of the series: In vitro anticancer screening, five concentration levels, breast subpanel. The series is classed as cell-based, human. How it is done: as §1
For series [7], the system named is DENA-induced liver cancer in rats. Nature of the series: Liver function in DENA-induced liver cancer in rats. The note with it: for ALP / ALT / AST / Bili (total bilirubin): serum, mean ± SE. It is filed as in vivo, rat. How it is done:
as §2
Diethylnitrosamine (DENA) and carbon tetrachloride (CCl4) were purchased from Sigma-Aldrich Chemical Corp., (St. Louis, Mo., USA). The DENA was dissolved in normal saline and injected as a single dose (200 mg/kg, intraperitoneally, i.p.) to initiate hepatic carcinogenesis. The CCl4 was administered as a single dose (2 ml/kg) by gavage as a 1:1 dilution in corn oil to stimulate liver cell proliferation and regeneration. The aspartate transaminase (AST), alanine transaminase (ALT), alkaline phosphatase (ALP), and total bilirubin (Bili) kits were obtained from BioMérieux (France).
Adult male Sprague-Dawley rats were divided into groups of eight animals each. Group 1 rats (untreated control) were fed a standard diet and given water throughout the experiment. Group 2 rats (treated with DENA) were injected with a single dose of DENA (200 mg/kg, i.p.), and 2 weeks later received a single dose of CCl4 (2 ml/kg) by gavage as 1:1 dilution in corn oil. Group 3 rats (treated with DENA and target compound) consisted of rats that were treated as the rats in Group 2, but also were treated with target compound administered IV at a dose that was 1/10 the LD50, for 10 consecutive days.
At the end of the treatment protocol on day 30 after the last injection, the animals were anesthetized with ether, and blood samples were drawn from the orbital venous plexus. The serum was separated by centrifugation for 5 minutes at 1500 g, and stored at −20° C. until analyzed. This serum was used to determine the liver function by assaying the ALT, AST, and ALP activities and total bilirubin spectrophotometrically according to the manufacturer's instructions using reagent kits obtained from […]. Liver function was measured, comparing results for control rats with results in DENA-treated and in target compound-treated rats. The results were reported as mean±standard error of the mean (SE). Statistical significance was analyzed using a one-way analysis of variance (ANOVA) followed by the Student's t-test, while the differences were considered to be significant at p<0.05.

For series [8], the system named is Lung subpanel tumor cell lines. Nature of the series: In vitro anticancer screening, five concentration levels, lung subpanel. The series is classed as cell-based, human. The protocol: as §1
The subject of series [9] is Leukemia subpanel tumor cell lines. Nature of the series: In vitro anticancer screening, five concentration levels, leukemia subpanel. The series is classed as cell-based, human. The protocol: as §1
The test system of series [10] is DENA-induced liver cancer in rats. Nature of the series: Histopathological examination of rat liver sections. The series is classed as in vivo. The note with it: H&E staining. The source says:
For the histopathological examination, the animals were euthanized by decapitation and their livers were rapidly excised, weighed, and washed with saline. Portions of the livers were fixed in 10% formalin in saline, embedded in paraffin wax, serially sectioned, and stained. A standard method of hematoxylin and eosin (H&E) staining was also used.

Series [11] concerns Ovarian subpanel tumor cell lines. Nature of the series: In vitro anticancer screening, five concentration levels, ovarian subpanel. The series is classed as cell-based, human. The protocol: as §1
[12] abbreviates: DENA/CCl4 rats treated IV at 1/10 LD50 for 10 days, day 30 after last injection.
[13] abbreviates: rats given DENA 200 mg/kg i.p. then CCl4, no target compound.

Like-named read-outs stand apart in the source and are kept apart here. Marks after values point to notes of the source that are not given here.

Consider `COc1ccc(-c2nn(-c3cccc(Cl)c3)cc2/C=C2\C(=N)N(c3ccccc3)N=C2N)cc1` [Compound 2, (4Z)-4-((1-(3-Chlorophenyl)-3-(4-methoxyphenyl)-1H-pyrazol-4-yl)methylene)-4,5-dihydro-5-imino-1-phenyl-1H-pyrazol-3-amine], for which the “Selectivity ratio, Renal” value in [1] is on record as 0.65. Further, the GI50 in series [1] (Homo sapiens, read-out: Median growth inhibitory concentration GI50, Renal) stood at 5550 nM; in series [2] (Homo sapiens, read-out: Median growth inhibitory concentration GI50, Prostate), 690 nM; in series [3] (Homo sapiens, read-out: Median growth inhibitory concentration GI50, Melanoma) it was 2830 nM; in series [4] (Homo sapiens, read-out: Median growth inhibitory concentration GI50, CNS), 5700 nM; in the series with 60 human cell lines (60 cell) it was 3590 nM; in series [5] (Homo sapiens, read-out: Median growth inhibitory concentration GI50, Colon), 1250 nM. For the same molecule, the GI50 in series [6] (Homo sapiens, read-out: Median growth inhibitory concentration GI50, Breast) was 2130 nM; in series [8] (Homo sapiens, read-out: Median growth inhibitory concentration GI50, Lung) it was 7390 nM; in series [9] (Homo sapiens, read-out: Median growth inhibitory concentration GI50, Leukemia), 610 nM; in [11] (Homo sapiens, read-out: Median growth inhibitory concentration GI50, Ovarian), 6110 nM. For the same molecule, the “Selectivity ratio, Prostate” value in series [2] is listed as 5.19. For the same molecule, the “Median lethal dose (LD50)” value with Sprague-Dawley rats (single IV dose, mortality monitored up to 1 month) is given as 195 μg/kg body weight. Moreover, the “Acute toxicity (in words)” value in the series on Sprague-Dawley rats (single IV doses 0 to 1200 μg/kg) is “no marked acute toxicity”. For the same molecule, in series [3], the “Selectivity ratio, Melanoma” value is 1.27. Further, in [4], the “Selectivity ratio, CNS” value came out at 0.63. Further, in the series on 60 human cell lines (single-dose of 10 μM, 60 cell lines), the “Growth inhibition, one dose mean graph” value is recorded as “significant growth inhibition”. Moreover, the “Selectivity ratio, Colon” value in series [5] is reported as 2.86. For the same molecule, the “Selectivity ratio, Breast” value in [6] worked out at 1.68. Besides, the “AST, ALT and ALP activities and total bilirubin level compared to DENA-treated rats (in words)” value in series [7] (dose of 1/10 of the LD50) is “substantial normalization”. Also, the ALP in [7] (setting [12]) is 124.00 ± 12.00^b U/L. The ALT in series [7] (setting [12]) is given as 49.00 ± 4.6^b U/L. Further, the AST in series [7] (setting [12]) was 70.00 ± 7.2^b U/L. Moreover, in series [7] (setting [12]), the “Bili (total bilirubin)” value is 1.63 ± 0.16^b mg/dl. In addition, the “Selectivity ratio, Lung” value in [8] is given as 0.49. In addition, in [9], the “Selectivity ratio, Leukemia” value is recorded as 5.86. The results for the “Liver histology (H&E) of DENA-rats treated with target compound” value in series [10] (listed as target) and in [10] (listed as target compound) were “improvement in the hepatic pattern associated with normal hepatic architecture” and “normal hepatic architecture”, respectively. Moreover, in [11], the “Selectivity ratio, Ovarian” value was found to be 0.59.

As to `CCN(CC)N=O` [DENA, Diethylnitrosamine, reference compound], in series [7] (setting [13]), the ALP is recorded as 215.00 ± 15.7^a U/L, the ALT is on record as 95.00 ± 7.0^a U/L, the AST is 110.00 ± 7.8^a U/L and the “Bili (total bilirubin)” value was 2.90 ± 0.20^a mg/dl.

On to `CNC(=O)c1cc(Oc2ccc(NC(=O)Nc3ccc(Cl)c(C(F)(F)F)c3)cc2)ccn1` [Sorafenib, sorafenib, reference compound], for which the GI50 in the series on 60 human cell lines (full panel, 60 cell lines) turned out to be 1900 nM.
